Measured values reported in publication PMC7048242 (Cancer letters, 2018).

Columns and labels:
[1] = tested on: S100B; assay: S100B expression in GL261 cells; format: cell-based, mouse
[2] = tested on: S100B promoter; assay: HTS cell-based S100B promoter-driven luciferase reporter assay; set-up: species or system human
[3] = tested on: K-Luc gliomas
[4] = tested on: tumor-associated myeloid-derived cells
[5] = tested on: GL261-Luc cells
[6] = tested on: tumor-associated leukocytes; settings: 30 mg/kg/14 days, LPS 0.5 μg/ml 24 h, q-PCR
[7] = tested on: CCL2; settings: GL261 cells, 48 h incubation
[8] = tested on: U251 glioma cells; settings: 5 μM, U251 (not shown)
[9] = tested on: K-Luc cells; settings: K-Luc cell line
[10] = tested on: intracranial GL261 gliomas
[11] = tested on: S100B, RAGE, CCL2
[12] = in vivo; settings: C57BL/6, mouse, po, 30 mg/kg
[13] = tested on: S100B; settings: cited from earlier work
[14] = contralateral brain tissue without tumor

CNCC[C@H](Oc1cccc2ccccc12)c1cccs1 [Duloxetine]
S100B expression ([1]; GL261 cells, low concentrations, 24 h (qPCR), 48 h (Western, ELISA, immunostains)): inhibited | S100B promoter activity ([2]; 5 μM, luciferase measured 24 h after treatment): inhibited | IC50 ([2]; Homo sapiens, U-251): 10 µM | Overall tumor levels of S100B and RAGE ([3]; K-Luc tumor-bearing mice, daily for 14 days): did not significantly change | Growth of K-Luc tumors ([3]; two-week treatment): did not significantly inhibit | Proportion of macrophages, monocytic myeloid-derived cells and neutrophils in GL261 gliomas ([4]; 30 mg/kg x 14 days, FACS): decreased | Pathway Scores for innate and adaptive immunity processes in tumors ([4]; Nanostring, GL261 tumors (not in TME)): significantly higher | Cell proliferation ([5]; GL261, Dul concentration < 10 μM): not significantly inhibited | LD50 ([5]; GL261-Luc cells, 24 h incubation): 25.1 µM | Il-1β expression by tumor-associated leukocytes [6]: higher levels | Il-6, Il-10 and Tgf-β expression by tumor-associated leukocytes [6]: lower levels | CCL2 expression [7]: inhibited | Cytotoxicity [8]: without causing cytotoxicity | Cell proliferation in vitro [9]: modest inhibitory effect | Tumor growth ([10]; i.c. GL261, 14 days treatment started a day after implantation): significantly decreased | Animal survival ([10]; i.c. GL261, high doses (30 mg/kg/14 days), started a day after implantation): improved | CCL2 expression in GL261 gliomas (immunohistochemistry) ([11]; 30 mg/kg, two weeks): decrease | Total brain S100B, RAGE or CCL2 protein levels ([11]; GL261 tumor-bearing mice, 5 or 30 mg/kg/14 days, tumor and peritumoral tissue): did not significantly inhibit | Serum S100B and soluble RAGE (sRAGE) levels ([11]; GL261 tumor-bearing mice, two-week treatment): Nor mouse serum S100B and soluble RAGE (sRAGE) levels changed | S100B and RAGE in i.c. GL261 tumors (histochemistry) ([11]; two-week treatment, tumor cells): effectively inhibited | concentration at 0.5 h ([12]; GL261 tumor): 48.8 µM | concentration at 2 h ([12]; GL261 tumor): 70.8 µM | concentration at 6 h ([12]; GL261 tumor): 24.9 µM | concentration at 12 h ([12]; GL261 tumor): 10 µM | concentration at 0.5 h [12, 14]: 36.3 µM | concentration at 2 h [12, 14]: 65.9 µM | concentration at 6 h [12, 14]: 24.2 µM | concentration at 12 h [12, 14]: 9.64 µM | concentration at 0.5 h ([12]; plasma): 3.04 µM | concentration at 2 h ([12]; plasma): 2.12 µM | concentration at 6 h ([12]; plasma): 1.28 µM | concentration at 12 h ([12]; plasma): 0.39 µM

NC[C@H](O)c1ccc(O)c(O)c1 [NE, norepinephrine]
S100B expression in GL261 ([1]; NE added every 3 h, 24 h, Western analysis): induced | S100B promoter activity in U251-Luc ([2]; NE added every 3 h, luciferase measured in 12 h): induced

CNCCC(Oc1ccc(C(F)(F)F)cc1)c1ccccc1 (centres unmarked) [fluoxetine]
S100B expression in rat astrocytes in vivo [13]: stimulated
